From US11965039B2, “Compstatin analogues and their medical uses” (priority 2018, dated 2024)
Like-named read-outs stand apart in the source and are kept apart here. Positions of bridges follow the written chain, without caps; N, C: chain ends. Non-standard residues stand in square brackets, D forms with d. Residues, ends and D or L forms follow the SMILES beside them. Sar = CNCC(=O)O

Tests used:
[1] = system: classical complement pathway; assay: In vitro haemolysis assay (inhibition of classical complement pathway); format: cell-based, human; settings: human serum, sensitized sheep red blood cells
Outline: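 Compound dilutions preincubated 15 min at room temperature with diluted human serum (titrated per batch for 70-90% maximal haemolysis), then antibody-sensitized sheep RBC (10^7/well) added for 30 min at 37 °C in Tris/casein buffer, pH 7.4. Stopped with EDTA; haemolysis read at 405 nm; IC50 by 4PL fit.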

[2] = Solubility test at 10 mg/mL (visual inspection and light scattering); format: physicochemical
Experimental: The solubility of compounds was assessed by measuring light scattering over a pH interval from pH 4 to pH 7.5.
Compounds were dissolved in a stock solution of 20 mg/mL in H2O at pH 2.5 or pH 10. These stock solutions were diluted 1:1 with 200 mM buffered solution to reach a final solution of 10 mg/mL compound in 100 mM buffer. The 5 investigated conditions were (1) acetate pH 4.0, (2) acetate pH 5.0, (3) phosphate pH 6.0, (4) phosphate pH 7 and (5) phosphate pH 7.5.
Visual inspection included manually checking the 96 well plate for wells that are clear or non-clear. In addition to this a picture of the 96 well plate is taken.
Absorbance was measured at four wavelengths: 280 nm, 325 nm, 340 nm and 360 nm in an UV transparent 96 well microplate in a SpectraMax 190 microplate reader (Molecular Devices).
The criteria for this was a combination of visual inspection and light scattering not exceeding 0.1 AU, where values below 0.1 AU are good in visually clear samples.

[3] = Table 3, given as upper bounds, read-out: IC50, inhibition of hemolysis
[4] = Table 4, valine 3 vs isoleucine 3 pairs, read-out: CP hemolysis IC50

Row | Solubility, condition 4 ([2]; Phosphate pH 7) | Solubility, condition 5 ([2]; Phosphate pH 7.5) | Solubility, Condition 1 ([2]; acetate pH 4.0, visual inspection and absorbance) | Solubility, Condition 2 ([2]; acetate pH 5.0, visual inspection and absorbance) | Solubility, Condition 3 ([2]; phosphate pH 6.0, visual inspection and absorbance) | Compound | IC50 [1, 3] | Solubility, Condition 1 ([2]; Acetate pH 4) | Solubility, Condition 2 ([2]; Acetate pH 5) | Solubility, Condition 3 ([2]; Phosphate pH 6) | Solubility, Condition 4 ([2]; Phosphate pH 7) | Solubility, Condition 5 ([2]; Phosphate pH 7.5) | IC50 [1, 4]
1 | – | – | – | – | – | CC[C@H](C)[C@H](NC(C)=O)C(=O)N[C@H]1CSSC[C@@H](C(=O)N[C@@H](CCC(=O)O)C(N)=O)NC(=O)[C@H](CCCNC(=N)N)NC(=O)[C@H](Cc2c[nH]cn2)NC(=O)[C@H](CCC(=O)O)NC(=O)CNC(=O)[C@H](Cc2c[nH]c3ccccc23)NC(=O)[C@H](CC(=O)O)NC(=O)[C@H](CCC(N)=O)NC(=O)[C@H](Cc2c[nH]c3ccccc23)NC(=O)[C@H]([C@@H](C)CC)NC1=O [Compound 22] (Ac-ICIWQDWGEHRCE-NH2; disulfide 2-12) | < 100 nM | + (“+” denotes solubility at the given condition, as determined by UV absorbance being less than 0.1 AU at 340 nm and the sample being clear when manually inspected) | − (“−” denotes lack of solubility at the given condition, as UV absorbance at 340 nm exceeds 0.1 AU and/or it is visibly turbid or contains particles) | − (“−” denotes lack of solubility at the given condition, as UV absorbance at 340 nm exceeds 0.1 AU and/or it is visibly turbid or contains particles) | + (“+” denotes solubility at the given condition, as determined by UV absorbance being less than 0.1 AU at 340 nm and the sample being clear when manually inspected) | + (“+” denotes solubility at the given condition, as determined by UV absorbance being less than 0.1 AU at 340 nm and the sample being clear when manually inspected) | –
2 | good | good | cloudy | cloudy | cloudy | CC[C@H](C)[C@H](NC(C)=O)C(=O)N[C@H]1CSSC[C@@H](C(=O)N[C@H](C(=O)N[C@@H](CCC(=O)O)C(=O)NCC(=O)N[C@@H](CCC(=O)O)C(N)=O)[C@@H](C)O)NC(=O)[C@H](CCCNC(=N)N)NC(=O)[C@H](Cc2c[nH]cn2)NC(=O)[C@H](CCC(=O)O)NC(=O)CNC(=O)[C@H](Cc2c[nH]c3ccccc23)NC(=O)[C@H](CC(=O)O)NC(=O)[C@H](CCC(N)=O)NC(=O)[C@H](Cc2c[nH]c3ccccc23)NC(=O)[C@H]([C@@H](C)CC)NC1=O [Compound 24] (Ac-ICIWQDWGEHRCTEGE-NH2; disulfide 2-12) | < 100 nM | − (“−” denotes lack of solubility at the given condition, as UV absorbance at 340 nm exceeds 0.1 AU and/or it is visibly turbid or contains particles) | − (“−” denotes lack of solubility at the given condition, as UV absorbance at 340 nm exceeds 0.1 AU and/or it is visibly turbid or contains particles) | − (“−” denotes lack of solubility at the given condition, as UV absorbance at 340 nm exceeds 0.1 AU and/or it is visibly turbid or contains particles) | + (“+” denotes solubility at the given condition, as determined by UV absorbance being less than 0.1 AU at 340 nm and the sample being clear when manually inspected) | + (“+” denotes solubility at the given condition, as determined by UV absorbance being less than 0.1 AU at 340 nm and the sample being clear when manually inspected) | 90 nM
3 | – | – | – | – | – | CC[C@H](C)[C@H](NC(C)=O)C(=O)N[C@H]1CSSC[C@@H](C(=O)N[C@H](C(=O)N[C@@H](CCC(=O)O)C(=O)N[C@@H](C)C(N)=O)[C@@H](C)O)NC(=O)[C@H](CCCNC(=N)N)NC(=O)[C@H](Cc2c[nH]cn2)NC(=O)[C@H](CCC(=O)O)NC(=O)CNC(=O)[C@H](Cc2c[nH]c3ccccc23)NC(=O)[C@H](CC(=O)O)NC(=O)[C@H](CCC(N)=O)NC(=O)[C@H](Cc2c[nH]c3ccccc23)NC(=O)[C@H]([C@@H](C)CC)NC1=O [Compound 25] (Ac-ICIWQDWGEHRCTEA-NH2; disulfide 2-12) | < 100 nM | + (“+” denotes solubility at the given condition, as determined by UV absorbance being less than 0.1 AU at 340 nm and the sample being clear when manually inspected) | − (“−” denotes lack of solubility at the given condition, as UV absorbance at 340 nm exceeds 0.1 AU and/or it is visibly turbid or contains particles) | − (“−” denotes lack of solubility at the given condition, as UV absorbance at 340 nm exceeds 0.1 AU and/or it is visibly turbid or contains particles) | + (“+” denotes solubility at the given condition, as determined by UV absorbance being less than 0.1 AU at 340 nm and the sample being clear when manually inspected) | + (“+” denotes solubility at the given condition, as determined by UV absorbance being less than 0.1 AU at 340 nm and the sample being clear when manually inspected) | –
4 | – | – | – | – | – | CC[C@H](C)[C@H](NC(C)=O)C(=O)N[C@H]1CSSC[C@@H](C(=O)N[C@@H](CCC(=O)O)C(=O)NCC(=O)N[C@@H](CCC(=O)O)C(N)=O)NC(=O)[C@H](CCCNC(=N)N)NC(=O)[C@H](Cc2c[nH]cn2)NC(=O)[C@H](CCC(=O)O)NC(=O)CNC(=O)[C@H](Cc2c[nH]c3ccccc23)NC(=O)[C@H](CC(=O)O)NC(=O)[C@H](CCC(N)=O)NC(=O)[C@H](Cc2c[nH]c3ccccc23)NC(=O)[C@H]([C@@H](C)CC)NC1=O [Compound 27] (Ac-ICIWQDWGEHRCEGE-NH2; disulfide 2-12) | < 100 nM | − (“−” denotes lack of solubility at the given condition, as UV absorbance at 340 nm exceeds 0.1 AU and/or it is visibly turbid or contains particles) | − (“−” denotes lack of solubility at the given condition, as UV absorbance at 340 nm exceeds 0.1 AU and/or it is visibly turbid or contains particles) | − (“−” denotes lack of solubility at the given condition, as UV absorbance at 340 nm exceeds 0.1 AU and/or it is visibly turbid or contains particles) | + (“+” denotes solubility at the given condition, as determined by UV absorbance being less than 0.1 AU at 340 nm and the sample being clear when manually inspected) | + (“+” denotes solubility at the given condition, as determined by UV absorbance being less than 0.1 AU at 340 nm and the sample being clear when manually inspected) | –
5 | – | – | – | – | – | CC[C@H](C)[C@H](NC(=O)[C@H](C)NC(=O)[C@H](CO)NC(=O)CNC(=O)[C@H](CCC(=O)O)NC(C)=O)C(=O)N[C@H]1CSSC[C@@H](C(=O)N(C)CC(=O)N[C@@H](CCC(=O)O)C(N)=O)NC(=O)[C@H](CCCNC(=N)N)NC(=O)[C@H](Cc2c[nH]cn2)NC(=O)[C@H](CCC(=O)O)NC(=O)CNC(=O)[C@H](Cc2c[nH]c3ccccc23)NC(=O)[C@H](CC(=O)O)NC(=O)[C@H](CCC(N)=O)NC(=O)[C@H](Cc2c[nH]c3ccccc23)NC(=O)[C@H]([C@@H](C)CC)NC1=O [Compound 28] (Ac-EGSAICIWQDWGEHRC[Sar]E-NH2; disulfide 6-16) | < 100 nM | + (“+” denotes solubility at the given condition, as determined by UV absorbance being less than 0.1 AU at 340 nm and the sample being clear when manually inspected) | + (“+” denotes solubility at the given condition, as determined by UV absorbance being less than 0.1 AU at 340 nm and the sample being clear when manually inspected) | + (“+” denotes solubility at the given condition, as determined by UV absorbance being less than 0.1 AU at 340 nm and the sample being clear when manually inspected) | + (“+” denotes solubility at the given condition, as determined by UV absorbance being less than 0.1 AU at 340 nm and the sample being clear when manually inspected) | + (“+” denotes solubility at the given condition, as determined by UV absorbance being less than 0.1 AU at 340 nm and the sample being clear when manually inspected) | 88 nM
6 | – | – | – | – | – | CC[C@H](C)[C@@H]1NC(=O)[C@@H](NC(=O)[C@@H](NC(=O)[C@H](CCC(=O)O)NC(=O)CNC(=O)[C@H](CCC(=O)O)NC(C)=O)[C@@H](C)CC)CSSC[C@@H](C(=O)N[C@H](C(N)=O)[C@@H](C)O)NC(=O)[C@H](CCCNC(=N)N)NC(=O)[C@H](Cc2c[nH]cn2)NC(=O)[C@H](CCC(=O)O)NC(=O)CNC(=O)[C@H](Cc2c[nH]c3ccccc23)NC(=O)[C@H](CC(=O)O)NC(=O)[C@H](CCC(N)=O)NC(=O)[C@H](Cc2c[nH]c3ccccc23)NC1=O [Compound 30] (Ac-EGEICIWQDWGEHRCT-NH2; disulfide 5-15) | < 100 nM | − (“−” denotes lack of solubility at the given condition, as UV absorbance at 340 nm exceeds 0.1 AU and/or it is visibly turbid or contains particles) | − (“−” denotes lack of solubility at the given condition, as UV absorbance at 340 nm exceeds 0.1 AU and/or it is visibly turbid or contains particles) | – | + (“+” denotes solubility at the given condition, as determined by UV absorbance being less than 0.1 AU at 340 nm and the sample being clear when manually inspected) | + (“+” denotes solubility at the given condition, as determined by UV absorbance being less than 0.1 AU at 340 nm and the sample being clear when manually inspected) | –
